Laboratory results taken from patent publication US9879250B2, “Protein-stabilizing agent and protein-stabilizing method” (NOF CORPORATION, priority 2014, dated 2018).

Assay: Dissolution in phosphate buffer when preparing the protein stabilization solution
Format: physicochemical
Details: phosphate buffer (pH 7.4)
Description: Two protein stabilizer solutions were prepared by dissolving the compound produced in Synthesis Example 1 in a phosphate buffer (pH 7.4) in such a manner that the final concentrations were controlled at 1.000% by mass (Example 1-1-1) and 0.100% by mass (Example 1-1-2) shown in Table 1 respectively.
Preparation of a protein stabilization solution was tested in the same manner as Example 1-1 except for using the compound produced in Comparative Synthesis Example 1. However, the compound produced in Comparative Synthesis Example 1 was not dissolved in the phosphate buffer, so that the protein stabilization effect could not evaluated.

## CCCCCCCCCCCCCCCCCCCCSCC(C)C(=O)OCCOP(=O)([O-])OCC[N+](C)(C)C (stereo not shown) [Comparative Synthesis Example 1, 2-[3-(eicosasulfanyl)-2-methylpropionyloxy]ethyl-2-(trimethylammonio)ethyl phosphate]
  Dissolution in the phosphate buffer: not dissolved
